Test results published in PubChem BioAssay (NCI).
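Step 1: Grow cells in 96-well plates. Step 2: Expose to compound for 48 hours at 5 concentrations. Step 3: Interpolate endpoints linearly; if unreached, use highest concentration. GI50 is the concentration that inhibits growth by half. TGI marks complete inhibition of growth.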

Columns and labels:
Test in all cases: inhibition of tumour cell growth, NCI panel, 48 h
A498 renal = test system: A498 renal
COLO 205 colon = test system: COLO 205 colon
RPMI-8226 leukemia = test system: RPMI-8226 leukemia
KM12 colon = test system: KM12 colon
U251 CNS = test system: U251 CNS
HOP-92 NSCLC = test system: HOP-92 NSCLC
NCI-H522 lung = test system: NCI-H522 lung
SF-539 CNS = test system: SF-539 CNS
SK-MEL-5 melanoma = test system: SK-MEL-5 melanoma
SW-620 colon = test system: SW-620 colon

Row | Structure (SMILES) | TGI (A498 renal) [µM] | TGI (COLO 205 colon) [µM] | TGI (RPMI-8226 leukemia) [µM] | TGI (KM12 colon) [µM] | TGI (U251 CNS) [µM] | TGI (HOP-92 NSCLC) [µM] | TGI (NCI-H522 lung) [µM] | TGI (SF-539 CNS) [µM] | TGI (SK-MEL-5 melanoma) [µM] | TGI (SW-620 colon) [µM] | GI50 (A498 renal) [µM] | GI50 (COLO 205 colon) [µM] | GI50 (RPMI-8226 leukemia) [µM] | GI50 (KM12 colon) [µM] | GI50 (U251 CNS) [µM] | GI50 (HOP-92 NSCLC) [µM] | GI50 (NCI-H522 lung) [µM] | GI50 (SF-539 CNS) [µM] | GI50 (SK-MEL-5 melanoma) [µM] | GI50 (SW-620 colon) [µM]
1 | Cc1ncc(CO)c(C=NCCCCCCN=Cc2c(CO)cnc(C)c2O)c1O | > 100 | > 100 | > 100 | > 100 | > 100 | > 100 | > 100 | > 100 | > 100 | > 100 | – | – | – | – | – | – | – | – | – | –
2 | Cc1ccc(S(=O)(=O)Nc2cc(Sc3ccccc3)c(O)c3ccccc23)cc1 | 28.8 | 42.4 | 22.8 | 18.9 | 3.84 | 4.57 | 27.6 | 9.51 | 13.1 | 16.2 | 13.1 | 19.5 | 3.4 | 6.01 | 1.94 | 2.02 | 13.1 | 3.19 | 3.57 | 3.91
3 | COc1cc(Cc2ccc3c(c2C#N)N(C)c2ccccc2S3)cc(OC)c1OC | > 100 | > 100 | > 100 | > 100 | > 100 | > 100 | > 100 | 42.7 | – | > 100 | – | – | – | – | – | – | – | – | – | –
4 | Cc1nc(N(CCO)CCO)c2sc(=S)n(-c3ccccc3)c2n1 | > 100 | > 100 | > 100 | > 100 | > 100 | > 100 | > 100 | > 100 | > 100 | > 100 | – | – | – | – | – | – | – | – | – | –
5 | COc1cc(C2S/C(=C/c3ccccc3)C(=O)N2c2ccccc2Cl)cc(OC)c1OC (stereo not given) | > 100 | > 100 | – | > 100 | 55.9 | > 100 | 39.2 | – | 75.1 | – | – | – | – | – | – | – | – | – | – | –
6 | CN(CCO)/N=N/c1nc[nH]c1C(N)=O | > 100 | > 100 | > 100 | > 100 | > 100 | > 100 | > 100 | > 100 | > 100 | > 100 | – | – | – | – | – | – | – | – | – | –
7 | C/C(=N\NC(=S)Nc1ccc(Cl)cc1)c1nc2ncccc2[nH]1 | 20.2 | 17.5 | > 100 | 16.4 | 14.5 | 5.75 | 20.2 | 8.27 | 6.5 | 35.5 | – | – | – | – | – | – | – | – | – | –
8 | O=c1oc2c(ccc3c(O)cccc32)c2c1CCCC2 | 80.8 | > 100 | > 100 | > 100 | 55.9 | 50.1 | > 100 | > 100 | > 100 | > 100 | – | – | – | – | – | – | – | – | – | –
9 | BrC1=CN2C[n+]3cc(Br)c4ccccc4c3N=C2c2ccccc21 | 70.9 | 23.1 | 30.5 | 15.9 | 21.9 | 29.6 | 32.2 | 25.7 | 12.8 | > 100 | – | – | – | – | – | – | – | – | – | –
10 | CCOC(=O)/C(=N/Nc1ccc(Cl)cc1)N1C(=S)C=C(C)NN(C)C1=S | – | > 100 | > 100 | > 100 | 39.5 | > 100 | 50.2 | > 100 | > 100 | > 100 | – | – | – | – | – | – | – | – | – | –
11 | COc1cc2nc(N3CCC[C@@H](NC4=CC(=O)c5ccccc5C4=O)C3)nc(N)c2cc1OC | 40.9 | 3.55 | 5.58 | 3.33 | 3.46 | – | 4.31 | – | 3.44 | 3.36 | 18.5 | 1.93 | 2.33 | 1.81 | 1.86 | – | 1.98 | – | 1.77 | 1.59
12 | NC(=S)N/N=C/c1ccc(OC(=O)COc2ccccc2Cl)cn1 | > 100 | > 100 | > 100 | > 100 | > 100 | > 90.3 | > 77.2 | 52.2 | > 100 | > 100 | – | – | – | – | – | – | – | – | – | –
13 | CCOC(=O)C(=O)Nc1cccc(C)c1C | > 100 | > 100 | > 100 | > 100 | > 100 | > 100 | > 100 | > 100 | > 100 | > 100 | – | – | – | – | – | – | – | – | – | –
14 | C/C([O-])=C(/c1nc(-c2ccc([N+](=O)[O-])o2)no1)[n+]1cc(C)ccc1C | 33.8 | 15 | 55.2 | 25.4 | 21.7 | > 100 | 14.4 | 27.6 | 23.4 | 16.9 | – | – | – | – | – | – | – | – | – | –
15 | COC(=O)C1=C(O)C(C(=O)OC)[C@@]2(O)[C@@H](C(=O)OC)CC[C@@H]1[C@@H]2C(=O)OC (stereo not given in full) | 55.4 | – | 97.3 | 66 | 64.6 | – | 52.4 | 46.1 | – | – | – | – | – | – | – | – | – | – | – | –
16 | O=C(O)CN=c1c2ccccc2n(O)c2ccccc12 | > 100 | > 100 | > 100 | > 100 | > 100 | – | > 100 | – | > 100 | > 100 | – | – | – | – | – | – | – | – | – | –
